Laboratory results as given in patent US10787450B2 (BRISTOL-MYERS SQUIBB COMPANY, priority 2016, dated 2020).

target: ROCK2 (Homo sapiens (Human), UniProt O75116); experiment: ROCK2 kinase inhibition assay (FITC peptide substrate, LABCHIP 3000 Reader); format: biochemical; settings: 5 μM ATP, 1.5 μM peptide substrate
Procedure, shortened: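 IC50 derived by curve fitting of dose-response inhibition, read as separation of phosphorylated from unphosphorylated FITC peptide (1.5 μM) after EDTA stop. Buffer: HEPES pH 7.5, MgCl2, Brij-35, DTT; ATP 5 μM; final DMSO <2%; reaction initiated by Rho kinase addition.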

Sequence of ROCK2 (O75116 whole entry, species assumed): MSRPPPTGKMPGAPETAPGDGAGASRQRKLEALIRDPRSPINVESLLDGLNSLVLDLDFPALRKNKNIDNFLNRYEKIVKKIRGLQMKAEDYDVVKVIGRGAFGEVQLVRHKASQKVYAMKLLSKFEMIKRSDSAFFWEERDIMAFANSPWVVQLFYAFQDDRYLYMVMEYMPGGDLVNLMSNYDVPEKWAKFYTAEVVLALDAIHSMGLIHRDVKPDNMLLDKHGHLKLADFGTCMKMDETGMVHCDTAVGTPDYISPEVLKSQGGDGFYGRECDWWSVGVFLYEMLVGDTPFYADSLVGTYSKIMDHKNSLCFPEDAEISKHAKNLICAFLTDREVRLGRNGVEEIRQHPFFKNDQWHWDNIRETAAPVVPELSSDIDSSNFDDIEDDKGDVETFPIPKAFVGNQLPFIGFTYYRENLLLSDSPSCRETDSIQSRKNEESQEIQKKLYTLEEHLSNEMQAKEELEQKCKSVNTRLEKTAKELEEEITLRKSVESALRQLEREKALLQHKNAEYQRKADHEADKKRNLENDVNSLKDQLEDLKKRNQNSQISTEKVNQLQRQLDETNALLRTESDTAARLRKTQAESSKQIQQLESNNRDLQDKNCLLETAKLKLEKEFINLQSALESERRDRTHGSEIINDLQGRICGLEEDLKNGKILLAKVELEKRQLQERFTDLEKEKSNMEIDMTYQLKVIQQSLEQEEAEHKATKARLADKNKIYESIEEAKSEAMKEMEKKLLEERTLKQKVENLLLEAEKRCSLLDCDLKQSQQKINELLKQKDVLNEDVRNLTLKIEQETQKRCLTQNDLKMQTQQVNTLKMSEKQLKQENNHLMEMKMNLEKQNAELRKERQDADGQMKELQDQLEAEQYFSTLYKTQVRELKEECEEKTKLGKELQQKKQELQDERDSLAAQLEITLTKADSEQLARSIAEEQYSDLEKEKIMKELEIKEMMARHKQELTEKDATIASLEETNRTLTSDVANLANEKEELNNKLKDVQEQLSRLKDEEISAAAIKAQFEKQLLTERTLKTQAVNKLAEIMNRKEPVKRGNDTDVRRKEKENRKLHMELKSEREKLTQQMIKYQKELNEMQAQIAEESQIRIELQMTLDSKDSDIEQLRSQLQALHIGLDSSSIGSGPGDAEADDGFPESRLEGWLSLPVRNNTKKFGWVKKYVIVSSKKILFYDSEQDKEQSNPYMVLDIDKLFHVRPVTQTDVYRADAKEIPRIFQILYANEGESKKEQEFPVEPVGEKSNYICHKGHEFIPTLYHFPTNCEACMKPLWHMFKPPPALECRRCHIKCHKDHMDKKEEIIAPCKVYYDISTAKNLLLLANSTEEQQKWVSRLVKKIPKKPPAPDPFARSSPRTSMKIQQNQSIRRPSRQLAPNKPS

IC50 [nM]	Structure (SMILES)
3 to 30	COc1cccc(CN2C(=O)N(c3ncc(-c4cn[nH]c4)c(OC)n3)CC23CCN(C(=O)[C@@H]2CC2(F)F)CC3)c1 [Example 213, (S)-8-(2,2-difluorocyclopropane-carbonyl)-3-(4-methoxy-5-(1H-pyrazol-4-yl)pyrimidin-2-yl)-1-(3-methoxybenzyl)-1,3,8-triazaspiro[4.5]decan-2-one]
3 to 30	COc1cccc(CN2C(=O)N(c3ncc(-c4cn[nH]c4)c(OC)n3)CC23CCN(C(=O)CC(C)C)CC3)c1 [Example 214, 3-(4-methoxy-5-(1H-pyrazol-4-yl)pyrimidin-2-yl)-1-(3-methoxybenzyl)-8-(3-methylbutanoyl)-1,3,8-triazaspiro[4.5]decan-2-one]
30 to 250	COc1cccc(CN2C(=O)N(c3ncc(-c4cn[nH]c4)c(OC)n3)CC23CCN(C(=O)C(C)C)CC3)c1 [Example 215, 8-isobutyryl-3-(4-methoxy-5-(1H-pyrazol-4-yl)pyrimidin-2-yl)-1-(3-methoxybenzyl)-1,3,8-triazaspiro[4.5]decan-2-one]
3 to 30	CCc1nc(N2CC3(CCN(C(=O)C4(O)CC4)CC3)N(Cc3cccc(OC)c3)C2=O)ccc1-c1cn[nH]c1 [Example 216, 3-(6-ethyl-5-(1H-pyrazol-4-yl)pyridin-2-y)-8-(1-hydroxycyclopropanecarbonyl)-1-(3-methoxybenzyl)-1,3,8-triazaspiro[4.5]decan-2-one]
< 3	CCc1nc(N2CC3(CCN(C(=O)[C@H]4CC4(F)F)CC3)N(Cc3cccc(OC)c3)C2=O)ccc1-c1cn[nH]c1 [Example 217, (R)-8-(2,2-difluorocyclopropane-carbonyl)-3-(6-ethyl-5-(1H-pyrazol-4-yl)pyridin-2-yl)-1-(3-methoxybenzyl)-1,3,8-triazaspiro[4.5]decan-2-one]
< 3	COc1cccc(CN2C(=O)N(c3ccc(-c4cn[nH]c4)c(OC)n3)CC23CCN(C(=O)CN(C)C)CC3)c1 [Example 218, 8-(2-(dimethylamino)acetyl)-3-(6-methoxy-5-(1H-pyrazol-4-yl)pyridin-2-yl)-1-(3-methoxybenzyl)-1,3,8-triazaspiro[4.5]decan-2-one]
< 3	COCC(=O)N1CCC2(CC1)CN(c1ccc(-c3cn[nH]c3)c(OC)n1)C(=O)N2Cc1cccc(OC)c1 [Example 219, 3-(6-methoxy-5-(1H-pyrazol-4-yl)pyridin-2-yl)-8-(2-methoxyacetyl)-1-(3-methoxybenzyl)-1,3,8-triazaspiro[4.5]decan-2-one]
< 3	COc1cccc(CN2C(=O)N(c3ccc(-c4cn[nH]c4)c(OC)n3)CC23CCN(C(=O)CO)CC3)c1 [Example 220, 8-(2-hydroxyacetyl)-3-(6-methoxy-5-(1H-pyrazol-4-yl)pyridin-2-yl)-1-(3-methoxybenzyl)-1,3,8-triazaspiro[4.5]decan-2-one]
< 3	COc1cccc(CN2C(=O)N(c3ccc(-c4cn[nH]c4)c(OC)n3)CC23CCN(C(=O)C(C)O)CC3)c1 (centres unmarked) [Example 221, 8-(2-hydroxypropanoyl)-3-(6-methoxy-5-(1H-pyrazol-4-yl)pyridin-2-yl)-1-(3-methoxybenzyl)-1,3,8-triazaspiro[4.5]decan-2-one]
< 3	COc1cccc(CN2C(=O)N(c3ccc(-c4cn[nH]c4)c(OC)n3)CC23CCN(C(=O)C(C)(C)O)CC3)c1 [Example 222, 8-(2-hydroxy-2-methylpropanoyl)-3-(6-methoxy-5-(1H-pyrazol-4-yl)pyridin-2-yl)-1-(3-methoxybenzyl)-1,3,8-triazaspiro[4.5]decan-2-one]
< 3	COc1cccc(CN2C(=O)N(c3ccc(-c4cn[nH]c4)c(OC)n3)CC23CCN(C(=O)C2COC2)CC3)c1 [Example 223, 3-(6-methoxy-5-(1H-pyrazol-4-yl)pyridin-2-yl)-1-(3-methoxybenzyl)-8-(oxetane-3-carbonyl)-1,3,8-triazaspiro[4.5]decan-2-one]
